# Source: patent US10722514B2 (FLX Bio, Inc., priority 2017, dated 2020)
# Where two headings read alike, the source gives them in different places.
# Target: T1, recombinant full-length USP7 (Homo sapiens, UniProt Q93009)
# T1 construct: A 25 μl reaction volume containing recombinant full-length USP7 (62 pM)
# Experiment: USP7-mediated ubiquitin-rhodamine cleavage assay
# Assay type: biochemical
# Conditions: recombinant full-length USP7 62 pM, ubiquitin-rhodamine 100 nM, 1 hour reaction at room temperature
# Method: In the case of the USP7 deubiquitylating enzyme, the IC50 of an USP7 inhibiting compound is the concentration of the compound that inhibits 50% of the activity observed in a USP7-mediated ubiquitin-rhodamine cleavage assay.
# For the USP7 inhibitors disclosed herein, their potency was measured using the following test method.
# A 25 μl reaction volume containing recombinant full-length USP7 (62 pM) in 20 mM HEPES pH 7.3, 150 mM NaCl, 1 mM TCEP, and 125 μg/ml BSA was assembled in wells of 384 well plates. Test compounds were dispensed with a Hewlett Packard D300 digital dispenser (1% final DMSO). Following a 30-minute incubation at room temperature, ubiquitin-rhodamine was added with the D300 to a final concentration of 100 nM and the reaction was allowed to proceed for 1 hour at room temperature protected from light. The reaction was stopped by the addition of 5 μl 1M acetic acid. Rhodamine fluorescence was measured using an Envision plate reader (Perkin Elmer) and IC50 values were determined by non-linear regression using a 4-parameter fit in a Dotmatics (Bishops Stortford, Hertfordshire, England) software package.
# [1] = 30-minute pre-incubation, read-out: Potency (USP7 IC50)
# [2] = 30-minute incubation with compound, read-out: Potency: USP7 IC50
# T1 sequence (Q93009 whole entry): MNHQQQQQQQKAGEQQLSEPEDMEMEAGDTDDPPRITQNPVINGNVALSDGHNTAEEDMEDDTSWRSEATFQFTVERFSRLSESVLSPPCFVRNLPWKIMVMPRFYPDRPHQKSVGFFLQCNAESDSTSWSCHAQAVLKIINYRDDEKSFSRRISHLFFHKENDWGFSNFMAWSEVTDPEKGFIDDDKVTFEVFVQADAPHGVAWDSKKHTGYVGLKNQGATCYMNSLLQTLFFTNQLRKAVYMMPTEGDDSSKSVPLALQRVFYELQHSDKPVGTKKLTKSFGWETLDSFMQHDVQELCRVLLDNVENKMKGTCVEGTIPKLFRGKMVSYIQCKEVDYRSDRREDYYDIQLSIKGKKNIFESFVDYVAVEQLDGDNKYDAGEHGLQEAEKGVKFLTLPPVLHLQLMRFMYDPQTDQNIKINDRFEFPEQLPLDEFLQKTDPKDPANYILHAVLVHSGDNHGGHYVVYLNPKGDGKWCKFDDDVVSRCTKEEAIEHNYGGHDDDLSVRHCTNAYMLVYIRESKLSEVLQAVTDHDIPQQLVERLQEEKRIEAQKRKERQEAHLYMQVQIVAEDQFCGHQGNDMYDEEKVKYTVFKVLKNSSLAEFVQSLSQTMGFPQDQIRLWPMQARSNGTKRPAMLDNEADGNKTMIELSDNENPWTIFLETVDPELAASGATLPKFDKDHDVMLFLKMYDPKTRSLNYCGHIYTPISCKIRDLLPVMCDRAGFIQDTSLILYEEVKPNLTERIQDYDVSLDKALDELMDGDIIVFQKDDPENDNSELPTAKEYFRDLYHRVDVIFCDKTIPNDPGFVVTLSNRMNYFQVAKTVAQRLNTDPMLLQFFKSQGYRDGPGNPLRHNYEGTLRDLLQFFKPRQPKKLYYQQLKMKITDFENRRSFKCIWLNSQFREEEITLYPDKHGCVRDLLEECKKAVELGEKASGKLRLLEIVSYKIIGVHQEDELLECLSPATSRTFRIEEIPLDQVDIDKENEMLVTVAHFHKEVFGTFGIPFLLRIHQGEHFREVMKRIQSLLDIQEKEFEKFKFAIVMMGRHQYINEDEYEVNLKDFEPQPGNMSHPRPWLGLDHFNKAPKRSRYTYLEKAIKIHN
SMILES,IC50 [1],IC50 [2]
"Cc1cc(Cl)cc(-c2ccnc3cc(Cn4c(=O)ccn(CC(F)(F)F)c4=O)sc23)c1O[C@@H]1CN(C2CC(C(F)(F)F)C2)C[C@@H]1C (stereo partly drawn) [Example 644, 3-[[7-[5-chloro-3-methyl-2-[(3S,4S)-4-methyl-1-[3-(trifluoromethyl)cyclobutyl]pyrrolidin-3-yl]oxy-phenyl]thieno[3,2-b]pyridin-2-yl]methyl]-1-(2,2,2-trifluoroethyl)pyrimidine-2,4-dione]",< 1000 nM,–
"Cc1cc(Cl)cc(-c2ccnc3cc(CN4C(=O)CCC4=O)sc23)c1OC1CCN(CC(F)(F)F)CC1 [Example 194, 1-((7-(5-Chloro-3-methyl-2-((1-(2,2,2-trifluoroethyl)piperidin-4-yl)oxy)phenyl)thieno[3,2-b]pyridin-2-yl)methyl)pyrrolidine-2,5-dione]",–,1000 to 10000 nM
"Cc1cc(Cl)cc(-c2ncnc3cc(CN4C(=O)CSC4=O)sc23)c1O[C@H]1CCCNC1 [Example 250, (S)-3-((4-(5-Chloro-3-methyl-2-(piperidin-3-yloxy)phenyl)thieno[3,2-d]pyrimidin-6-yl)methyl)thiazolidine-2,4-dione]",–,< 1000 nM
"Cc1cc(Cl)cc(-c2ncnc3cc(Cn4c(=O)ccn(C)c4=O)sc23)c1O[C@H]1CCNC[C@@H]1F [Example 560, 3-[[4-[5-chloro-2-[[(3S,4S)-3-fluoro-4-piperidyl]oxy]-3-methyl-phenyl]thieno[3,2-d]pyrimidin-6-yl]methyl]-1-methyl-pyrimidine-2,4-dione]",< 1000 nM,–
"Cc1cc(Cl)cc(-c2ccnc3cc(CO)sc23)c1OC1COC2(CNC2)C1 (stereo not drawn) [Example 40, (7-(2-((5-Oxa-2-azaspiro[3.4]octan-7-yl)oxy)-5-chloro-3-methylphenyl)thieno[3,2-b]pyridin-2-yl)methanol]",–,10000 to 30000 nM
"Cc1cc(Cl)cc(-c2ncnc3cc(Cn4c(=O)ccn(CC(F)(F)F)c4=O)sc23)c1O[C@@H]1CNC[C@@H]1C [Example 595, 3-[[4-[5-chloro-3-methyl-2-[(3S,4S)-4-methylpyrrolidin-3-yl]oxy-phenyl]thieno[3,2-d]pyrimidin-6-yl]methyl]-1-(2,2,2-trifluoroethyl)pyrimidine-2,4-dione]",< 1000 nM,–
"Cc1cc(Cl)cc(-c2ccnc3cc(Cn4c(=O)ccn(C)c4=O)sc23)c1O[C@@H]1CN(CCO)C[C@@H]1F [Example 467, 3-[[7-[5-chloro-2-[(3R,4S)-4-fluoro-1-(2-hydroxyethyl)pyrrolidin-3-yl]oxy-3-methyl-phenyl]thieno[3,2-b]pyridin-2-yl]methyl]-1-methyl-pyrimidine-2,4-dione; 2,2,2-trifluoroacetic acid]",< 1000 nM,–
"Cc1cc(Cl)cc(-c2ccnc3cc(Cn4c(=O)ccn(CC(F)(F)F)c4=O)sc23)c1O[C@H]1CNC[C@H]1C [Example 626, 3-[[7-[5-chloro-3-methyl-2-[(3R,4R)-4-methylpyrrolidin-3-yl]oxy-phenyl]thieno[3,2-b]pyridin-2-yl]methyl]-1-(2,2,2-trifluoroethyl)pyrimidine-2,4-dione]",< 1000 nM,–
"Cc1cc(Cl)cc(-c2ccnc3cc(CO)sc23)c1OC1C[C@@H]2C[C@H](C1)N2 (stereo partly drawn) [Example 190, (7-(2-(((1R,5S)-6-Azabicyclo[3.1.1]heptan-3-yl)oxy)-5-chloro-3-methylphenyl)thieno[3,2-b]pyridin-2-yl)methanol]",–,10000 to 30000 nM
"Cc1cc(Cl)cc(-c2ccnc3cc(Cn4c(=O)ccn(C)c4=O)sc23)c1OCC(C)N (stereo not drawn) [Example 554, 3-[[7-[2-(2-aminopropoxy)-5-chloro-3-methyl-phenyl]thieno[3,2-b]pyridin-2-yl]methyl]-1-methyl-pyrimidine-2,4-dione; 2,2,2-trifluoroacetic acid]",< 1000 nM,–
"Cc1cc(Cl)cc(-c2ccnc3cc(Cn4c(=O)ccn(CC(F)(F)F)c4=O)sc23)c1O[C@H]1CC[C@](C)(N2CCOCC2)C1 [Example 612, 3-[[7-[5-chloro-3-methyl-2-[(1S,3S)-3-methyl-3-morpholino-cyclopentoxy]phenyl]thieno[3,2-b]pyridin-2-yl]methyl]-1-(2,2,2-trifluoroethyl)pyrimidine-2,4-dione; 2,2,2-trifluoroacetic acid]",< 1000 nM,–
Cc1cc(Cl)cc(-c2ccnc3cc(Cn4c(=O)ccn(C)c4=O)sc23)c1OC1CC(N2CCOCC2)C1 (stereo not drawn) [Example 516],< 1000 nM,–
"OCc1cc2nccc(-c3cc(Cl)cc(Br)c3O[C@H]3CCCNC3)c2s1 [Example 166, (S)-(7-(3-Bromo-5-chloro-2-(piperidin-3-yloxy)phenyl)thieno[3,2-b]pyridin-2-yl)methanol]",–,1000 to 10000 nM
"CCn1ccc(=O)n(Cc2cc3nccc(-c4cc(Cl)cc(C)c4O[C@H]4CCCNC4)c3s2)c1=O [Example 423, 3-[[7-[5-chloro-3-methyl-2-[[(3S)-3-piperidyl]oxy]phenyl]thieno[3,2-b]pyridin-2-yl]methyl]-1-ethyl-pyrimidine-2,4-dione]",< 1000 nM,–

# Continued, values first:
IC50 [1],IC50 [2],SMILES
–,< 1000 nM,"Cc1cc(Cl)cc(-c2ccnc3cc(CN4C(=O)C5C(C4=O)C5(C)C)sc23)c1O[C@@H]1CCNC[C@@H]1F (stereo partly drawn) [Example 376, 3-[[7-[5-chloro-2-[[(3S,4R)-3-fluoro-4-piperidyl]oxy]-3-methyl-phenyl]thieno[3,2-b]pyridin-2-yl]methyl]-6,6-dimethyl-3-azabicyclo[3.1.0]hexane-2,4-dione; 2,2,2-trifluoroacetic acid]"
–,1000 to 10000 nM,Cc1cc(Cl)cc(-c2ccnc3cc(CN4C(=O)C5CCCCC5C4=O)sc23)c1OC1CCNCC1 (stereo not drawn) [Example 217]
–,1000 to 10000 nM,"CCC(O)c1cc2nccc(-c3cc(Cl)cc(C)c3OC3CC4CC3CN4)c2s1 (stereo not drawn) [Example 197, 1-(7-(2-((2-Azabicyclo[2.2.1]heptan-5-yl)oxy)-5-chloro-3-methylphenyl)thieno[3,2-b]pyridin-2-yl)propan-1-ol]"
< 1000 nM,–,"Cc1cc(Cl)cc(-c2ccnc3cc(CN4C(=O)CCC4=O)sc23)c1O[C@@H]1CNC[C@H](F)C1 [Example 424, 1-[[7-[5-chloro-2-[[(3S,5R)-5-fluoro-3-piperidyl]oxy]-3-methyl-phenyl]thieno[3,2-b]pyridin-2-yl]methyl]pyrrolidine-2,5-dione]"
< 1000 nM,–,"Cc1cc(Cl)cc(-c2ccnc3cc(Cn4c(=O)ccn(C)c4=O)sc23)c1O[C@@H]1CNC[C@@H]1C(F)(F)F [Example 441, 3-[[7-[5-chloro-3-methyl-2-[(3S,4S)-4-(trilfuoromethyl)pyrrolidin-3-yl]oxy-phenyl]thieno[3,2-b]pyridin-2-yl]methyl]-1-methyl-pyrimidine-2,4-dione]"
< 1000 nM,–,"Cc1cc(Cl)cc(-c2ccnc3cc(Cn4c(=O)ccn(CC(F)(F)F)c4=O)sc23)c1OC1CCNCC1(C)C (stereo not drawn) [Example 616, 3-[[7-[5-chloro-2-[(3,3-dimethyl-4-piperidyl)oxy]-3-methyl-phenyl]thieno[3,2-b]pyridin-2-yl]methyl]-1-(2,2,2-trifluoroethyl)pyrimidine-2,4-dione; 2,2,2-trifluoroacetic acid]"
< 1000 nM,–,"Cc1cc(Cl)cc(-c2ncnc3cc(Cn4c(=O)ccn(CC(F)(F)F)c4=O)sc23)c1O[C@@H]1CCN(C)C[C@@H]1C [Example 528, 3-[[4-[5-chloro-2-[[(3S,4R)-1,3-dimethyl-4-piperidyl]oxy]-3-methyl-phenyl]thieno[3,2-d]pyrimidin-6-yl]methyl]-1-(2,2,2-trifluoroethyl)pyrimidine-2,4-dione]"
